Common to all, as to assay: relative viability (nuclei count vs DMSO), 5 days (fraction); higher = more cells survive
Compound in the experiment “Bicalutamide + Foretinib”: CC(O)(CS(=O)(=O)c1ccc(F)cc1)C(=O)Nc1ccc(C#N)c(C(F)(F)F)c1 [Bicalutamide] + COc1cc2c(Oc3ccc(NC(=O)C4(C(=O)Nc5ccc(F)cc5)CC4)cc3F)ccnc2cc1OCCCN1CCOCC1 [Foretinib] (partner 0.25 µM)
The method in brief:
(§1)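 Lung cancer cell lines, seeded in 1536-well plates, were treated the following day by pin tool with a single drug or with five library-drug doses (not always all listed) in √10 steps on top of a fixed anchor-drug dose. Cells were fixed and nuclei stained in one step after 5 days, and nuclei were counted. Relative viability is the nuclei count for treated wells divided by that for vehicle wells, reported as medians of duplicate plates.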

Compound in the experiment “Bromopyruvate + AZD7762”: C(C(=O)C(=O)O)Br [Bromopyruvate] + NC(=O)Nc1cc(-c2cccc(F)c2)sc1C(=O)N[C@H]1CCCNC1 [AZD7762] (partner 0.2 µM)
The method in brief: as §1

Compound in the experiment “Bromopyruvate + Olaparib”: C(C(=O)C(=O)O)Br [Bromopyruvate] + O=C(c1cc(Cc2n[nH]c(=O)c3ccccc23)ccc1F)N1CCN(C(=O)C2CC2)CC1 [Olaparib] (partner 8 µM)
The method in brief:
as §1

Compound in experiment [1]: CC(O)(CS(=O)(=O)c1ccc(F)cc1)C(=O)Nc1ccc(C#N)c(C(F)(F)F)c1 [Bicalutamide] + C[C@@H](Oc1cc(-c2cnn(C3CCNCC3)c2)cnc1N)c1c(Cl)ccc(F)c1Cl [Crizotinib] (partner 1 µM)
The method in brief: as §1

As to HCC-15, the relative viability with Bicalutamide + Foretinib (first compound 0.08 µM) is 1.04; with Bicalutamide + Foretinib (first compound 0.253 µM), 0.952; with Bicalutamide + Foretinib (first compound 0.8 µM) it was 1.12; in the experiment with Bicalutamide + Foretinib (first compound 2.53 µM) it was 1.02; in the experiment with Bromopyruvate + AZD7762 (first compound 1 µM), 1.22; with Bromopyruvate + AZD7762 (first compound 3.162 µM) it was 1.25. For the same cell line, the relative viability was 1.32 with Bromopyruvate + AZD7762 (first compound 10 µM); 1.25 in the experiment with Bromopyruvate + AZD7762 (first compound 31.62 µM); 1.22 with Bromopyruvate + AZD7762 (first compound 100 µM); 0.745 with Bromopyruvate + Olaparib (first compound 1 µM); 0.735 with Bromopyruvate + Olaparib (first compound 3.162 µM); 0.697 in the experiment with Bromopyruvate + Olaparib (first compound 10 µM). The relative viability with Bromopyruvate + Olaparib (first compound 31.62 µM) amounted to 0.734; in the experiment with Bromopyruvate + Olaparib (first compound 100 µM), 0.699; in experiment [1] (first compound 0.08 µM) it was 0.82; in experiment [1] (first compound 0.253 µM) it was 0.767; in experiment [1] (first compound 0.8 µM), 1.01; in experiment [1] (first compound 2.53 µM), 0.882.

Turning to HCC-78, the relative viability with Bicalutamide + Foretinib (first compound 0.08 µM) was found to be 0.566; in the experiment with Bicalutamide + Foretinib (first compound 0.253 µM), 0.543; in the experiment with Bicalutamide + Foretinib (first compound 0.8 µM), 0.55; with Bicalutamide + Foretinib (first compound 2.53 µM), 0.52; in the experiment with Bromopyruvate + AZD7762 (first compound 1 µM) it was 0.481; in the experiment with Bromopyruvate + AZD7762 (first compound 3.162 µM) it was 0.624. In addition, the relative viability turned out to be 0.565 with Bromopyruvate + AZD7762 (first compound 10 µM); 0.549 with Bromopyruvate + AZD7762 (first compound 31.62 µM); 0.463 with Bromopyruvate + AZD7762 (first compound 100 µM); 0.762 with Bromopyruvate + Olaparib (first compound 1 µM); 0.811 in the experiment with Bromopyruvate + Olaparib (first compound 3.162 µM); 0.944 with Bromopyruvate + Olaparib (first compound 10 µM). In addition, the relative viability came to 0.776 in the experiment with Bromopyruvate + Olaparib (first compound 31.62 µM); 0.848 in the experiment with Bromopyruvate + Olaparib (first compound 100 µM); 0.355 in experiment [1] (first compound 0.08 µM); 0.362 in experiment [1] (first compound 0.253 µM); 0.37 in experiment [1] (first compound 0.8 µM); 0.319 in experiment [1] (first compound 2.53 µM).

On to HCC-366, for which the relative viability with Bicalutamide + Foretinib (first compound 0.08 µM) stood at 0.937; in the experiment with Bicalutamide + Foretinib (first compound 0.253 µM) it was 0.842; in the experiment with Bicalutamide + Foretinib (first compound 0.8 µM) it was 0.919; in the experiment with Bicalutamide + Foretinib (first compound 2.53 µM), 0.995; with Bromopyruvate + AZD7762 (first compound 1 µM), 0.272; with Bromopyruvate + AZD7762 (first compound 3.162 µM), 0.346. The relative viability was 0.197 in the experiment with Bromopyruvate + AZD7762 (first compound 10 µM); 0.254 with Bromopyruvate + AZD7762 (first compound 31.62 µM); 0.249 with Bromopyruvate + AZD7762 (first compound 100 µM); 0.365 with Bromopyruvate + Olaparib (first compound 1 µM); 0.323 in the experiment with Bromopyruvate + Olaparib (first compound 3.162 µM); 0.345 with Bromopyruvate + Olaparib (first compound 10 µM). Further, the relative viability with Bromopyruvate + Olaparib (first compound 31.62 µM) is 0.321; with Bromopyruvate + Olaparib (first compound 100 µM), 0.284; in experiment [1] (first compound 0.08 µM), 0.599; in experiment [1] (first compound 0.253 µM), 0.473; in experiment [1] (first compound 0.8 µM), 0.698; in experiment [1] (first compound 2.53 µM), 0.328.

With HCC-827, the relative viability amounted to 1.09 in the experiment with Bicalutamide + Foretinib (first compound 0.08 µM); 0.881 with Bicalutamide + Foretinib (first compound 0.253 µM); 1.04 in the experiment with Bicalutamide + Foretinib (first compound 0.8 µM); 1.01 in the experiment with Bicalutamide + Foretinib (first compound 2.53 µM); 0.175 in the experiment with Bromopyruvate + AZD7762 (first compound 1 µM); 0.195 with Bromopyruvate + AZD7762 (first compound 3.162 µM). Further, the relative viability was found to be 0.198 with Bromopyruvate + AZD7762 (first compound 10 µM); 0.203 with Bromopyruvate + AZD7762 (first compound 31.62 µM); 0.19 with Bromopyruvate + AZD7762 (first compound 100 µM); 0.757 with Bromopyruvate + Olaparib (first compound 1 µM); 0.706 with Bromopyruvate + Olaparib (first compound 3.162 µM); 0.732 with Bromopyruvate + Olaparib (first compound 10 µM). Also, the relative viability with Bromopyruvate + Olaparib (first compound 31.62 µM) worked out at 0.616; with Bromopyruvate + Olaparib (first compound 100 µM), 0.588; in experiment [1] (first compound 0.08 µM), 0.922; in experiment [1] (first compound 0.253 µM) it was 0.911; in experiment [1] (first compound 0.8 µM), 0.942; in experiment [1] (first compound 2.53 µM) it was 0.952.
